Data reported in ChEMBL document CHEMBL5154943, “Crystallography-Guided Optimizations of the Keap1-Nrf2 Inhibitors on the Solvent Exposed Region: From Symmetric to Asymmetric Naphthalenesulfonamides” (J Med Chem, 2022).
Values after ≈ are worked out from the molar mass of the structure shown. Active and inactive are the calls of the source. The rule behind the calls is not given here.

How the values were obtained:
Keap1/Nrf2 = Keap1/Nrf2 (Homo sapiens, UniProt Q14145); test: Inhibition of recombinant N-terminal His6-tagged human Keap1-Nrf2 (322 to 609 residues) (unknown origin) protein-protein interaction expressed in Escherichia coli (DE3) incubated for 60 mins by fluorescence anisotropy assay
Chain of Keap1/Nrf2 (Q16236 whole entry, the tested form may be a part): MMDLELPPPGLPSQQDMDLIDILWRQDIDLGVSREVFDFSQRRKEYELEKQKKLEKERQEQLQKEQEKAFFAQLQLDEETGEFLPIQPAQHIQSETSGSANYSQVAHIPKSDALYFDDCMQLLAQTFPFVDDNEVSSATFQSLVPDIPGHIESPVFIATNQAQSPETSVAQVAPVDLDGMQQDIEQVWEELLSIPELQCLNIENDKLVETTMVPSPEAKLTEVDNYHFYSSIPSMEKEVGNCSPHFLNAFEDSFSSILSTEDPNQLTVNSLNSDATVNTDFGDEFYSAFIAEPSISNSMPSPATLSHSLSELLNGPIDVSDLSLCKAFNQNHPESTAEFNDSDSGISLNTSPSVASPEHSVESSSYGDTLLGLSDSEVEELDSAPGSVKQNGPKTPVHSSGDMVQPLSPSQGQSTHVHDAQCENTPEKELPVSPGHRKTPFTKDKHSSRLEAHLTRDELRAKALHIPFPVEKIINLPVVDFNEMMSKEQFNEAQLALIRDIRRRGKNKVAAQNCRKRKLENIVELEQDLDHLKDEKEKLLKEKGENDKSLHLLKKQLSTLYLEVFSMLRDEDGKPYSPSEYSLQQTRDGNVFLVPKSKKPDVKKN
Chain of Keap1/Nrf2 (Q14145 whole entry, the tested form may be a part): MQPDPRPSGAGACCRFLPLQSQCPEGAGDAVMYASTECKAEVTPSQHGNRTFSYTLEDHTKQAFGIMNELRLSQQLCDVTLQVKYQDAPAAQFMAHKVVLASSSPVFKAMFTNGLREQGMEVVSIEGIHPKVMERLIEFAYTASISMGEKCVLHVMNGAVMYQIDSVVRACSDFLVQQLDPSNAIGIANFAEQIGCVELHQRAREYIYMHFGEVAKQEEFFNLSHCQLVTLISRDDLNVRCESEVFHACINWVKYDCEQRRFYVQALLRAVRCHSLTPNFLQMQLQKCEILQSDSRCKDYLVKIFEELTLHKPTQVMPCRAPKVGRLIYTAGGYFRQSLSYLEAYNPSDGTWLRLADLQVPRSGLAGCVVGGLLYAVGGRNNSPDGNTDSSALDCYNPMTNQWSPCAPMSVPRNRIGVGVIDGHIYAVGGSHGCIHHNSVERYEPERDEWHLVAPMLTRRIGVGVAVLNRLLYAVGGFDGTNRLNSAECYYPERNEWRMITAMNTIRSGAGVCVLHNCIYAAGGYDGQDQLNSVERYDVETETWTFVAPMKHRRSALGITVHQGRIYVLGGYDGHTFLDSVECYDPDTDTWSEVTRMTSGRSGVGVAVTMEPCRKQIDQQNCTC

Peritoneal macrophage [1] = test: Cytotoxicity against mouse peritoneal macrophages assessed as reduction in cell viability measured after 24 hrs by Cell Titer-Blue assay; assay type: functional
[2] = Aqueous solubility of the compound in PBS at pH 2 after 24 hrs by HPLC-UV analysis; assay type: physicochemical
[3] = Aqueous solubility of the compound in PBS at pH 7 after 24 hrs by HPLC-UV analysis; assay type: physicochemical
[4] = Aqueous solubility of the compound in PBS at pH 7.4 after 24 hrs by HPLC-UV analysis; assay type: physicochemical
Peritoneal macrophage [5] = test: Antiinflammatory activity against LPS-induced mouse peritoneal macrophage assessed as suppression of ROS level at 10 uM pretreated with LPS followed by compound addition and measured after 6 hrs by DCFH-DA staining based fluorescence analysis; assay type: functional, cell-based
Mus musculus [6] = test: Antiinflammatory activity against ip dosed LPS-induced ALI C57BL/6J mouse model assessed as reduction in TNF-alpha level in BALF administered 0.5 hr prior to LPS stimulation by ELISA method; assay type: functional, organism-based; details: dose 5-20 mg/kg, DDE = dose-dependent effect
Mus musculus [7] = test: Antiinflammatory activity against ip dosed LPS-induced ALI C57BL/6J mouse model assessed as reduction in […] level in BALF administered 0.5 hr prior to LPS stimulation by ELISA method; assay type: functional, organism-based; details: dose 5-20 mg/kg, DDE = dose-dependent effect
Mus musculus [8] = test: Antiinflammatory activity against ip dosed LPS-induced ALI C57BL/6J mouse model assessed as reduction in IL-6 level in BALF administered 0.5 hr prior to LPS stimulation by ELISA method; assay type: functional, organism-based; details: dose 5-20 mg/kg, DDE = dose-dependent effect
Mus musculus [9] = test: Antiinflammatory activity against ip dosed LPS-induced ALI C57BL/6J mouse model assessed as reduction in TNF-alpha mRNA expression in BALF administered 0.5 hr prior to LPS stimulation by RT-qPCR method; assay type: functional, organism-based; details: dose 5-20 mg/kg, DDE = dose-dependent effect
Mus musculus [10] = test: Antiinflammatory activity against ip dosed LPS-induced ALI C57BL/6J mouse model assessed as reduction in IL-1beta mRNA expression in BALF administered 0.5 hr prior to LPS stimulation by RT-qPCR method; assay type: functional, organism-based; details: dose 5-20 mg/kg, DDE = dose-dependent effect
Mus musculus [11] = test: Antiinflammatory activity against ip dosed LPS-induced ALI C57BL/6J mouse model assessed as reduction in IL-6 mRNA expression in BALF administered 0.5 hr prior to LPS stimulation by RT-qPCR method; assay type: functional, organism-based; details: dose 5-20 mg/kg, DDE = dose-dependent effect
Mus musculus [12] = test: In vivo inhibition of Keap1-Nrf2 interaction in LPS-induced acute lung injury C57BL/6J mouse model assessed as increase in Nrf2 nuclear translocation in lungs by measuring decrease in cytosolic Nrf2 level treated intraperitoneally at 0.5 hrs before LPS stimulation by Western blot analysis; assay type: functional, organism-based; details: dose 5-20 mg/kg, route ip, DDE = dose-dependent effect
Peritoneal macrophage [13] = test: Antiinflammatory activity against LPS-induced mouse peritoneal macrophage assessed as suppression of NO level at 10 uM pretreated with LPS followed by compound addition and measured after 24 hrs by Griess reagent based assay; assay type: functional, cell-based
Peritoneal macrophage [14] = test: Antiinflammatory activity against LPS-induced mouse peritoneal macrophage assessed as inhibition of TNF alpha level at 10 uM after 4 hrs by ELISA method; assay type: functional, cell-based
Mus musculus [15] = test: In vivo inhibition of Keap1-Nrf2 interaction in LPS-induced acute lung injury C57BL/6J mouse model assessed as increase in Nrf2 nuclear translocation in lungs by measuring increase in nuclear Nrf2 level treated intraperitoneally at 0.5 hrs before LPS stimulation by Western blot analysis; assay type: functional, organism-based; details: dose 5-20 mg/kg, route ip, DDE = dose-dependent effect

Structure (SMILES) | Kd (Keap1/Nrf2) | solubility at 24 h [2] | solubility at 24 h [3] | solubility at 24 h [4] | CC50 (Peritoneal macrophage [1]) | further results
COc1ccc(S(=O)(=O)N(CC(N)=O)c2ccc(N(CC(N)=O)S(=O)(=O)c3ccc(NC(=O)CN4CCOCC4)cc3)c3ccccc23)cc1 | 1350 nM | – | – | – | > 100000 nM | –
CCN1CCN(CCC(=O)Nc2ccc(S(=O)(=O)N(CC(N)=O)c3ccc(N(CC(N)=O)S(=O)(=O)c4ccc(OC)cc4)c4ccccc34)cc2)CC1.O=C(O)CC(O)(CC(=O)O)C(=O)O | – | 1030 µg/mL | 129 µg/mL | 72.5 µg/mL | – | –
COc1ccc(S(=O)(=O)N(CC(N)=O)c2ccc(N(CC(N)=O)S(=O)(=O)c3ccc(NC(=O)CN4CCN(C(C)C)CC4)cc3)c3ccccc23)cc1 | 1450 nM | – | – | – | > 100000 nM | –
CCN1CCN(CCC(=O)Nc2ccc(S(=O)(=O)N(CC(N)=O)c3ccc(N(CC(N)=O)S(=O)(=O)c4ccc(OC)cc4)c4ccccc34)cc2)CC1 | – | – | – | – | – | Activity (Peritoneal macrophage [5]): Active; Activity (Mus musculus [6]): Dde; Activity (Mus musculus [7]): Dde; Activity (Mus musculus [8]): Dde; Activity (Mus musculus [9]): Dde; Activity (Mus musculus [10]): Dde; Activity (Mus musculus [11]): Dde; Activity (Mus musculus [12]): Dde; Activity (Peritoneal macrophage [13]): Active; Activity (Peritoneal macrophage [14]): Active; Activity (Mus musculus [15]): Dde
COc1ccc(S(=O)(=O)N(CC(N)=O)c2ccc(N(CC(N)=O)S(=O)(=O)c3ccc(NC(=O)CCN4CCOCC4)cc3)c3ccccc23)cc1 | 1030 nM | – | – | – | > 100000 nM | Activity (Peritoneal macrophage [5]): Active; Activity (Peritoneal macrophage [13]): Active; Activity (Peritoneal macrophage [14]): Active
COc1ccc(S(=O)(=O)N(CC(N)=O)c2ccc(N(CC(N)=O)S(=O)(=O)c3ccc(NC(=O)CN4CCC(C)CC4)cc3)c3ccccc23)cc1 | 6110 nM | – | – | – | > 50000 nM | –
COc1ccc(S(=O)(=O)N(CC(N)=O)c2ccc(N(CC(N)=O)S(=O)(=O)c3ccc(NC(=O)CCN4CCN(C(C)C)CC4)cc3)c3ccccc23)cc1 | 710 nM | – | – | – | > 100000 nM | –
COc1ccc(S(=O)(=O)N(CC(N)=O)c2ccc(N(CC(N)=O)S(=O)(=O)c3ccc(NC(=O)CCN4CCSCC4)cc3)c3ccccc23)cc1 | 2910 nM | – | – | – | > 50000 nM | –
COc1ccc(S(=O)(=O)N(CC(N)=O)c2ccc(N(CC(N)=O)S(=O)(=O)c3ccc(NC(=O)CN4CCSCC4)cc3)c3ccccc23)cc1 | 8940 nM | – | – | – | > 100000 nM | –
CCN1CCN(CCC(=O)Nc2ccc(S(=O)(=O)N(CC(N)=O)c3ccc(N(CC(N)=O)S(=O)(=O)c4ccc(OC)cc4)c4ccccc34)cc2)CC1.O=C(O)CCC(=O)O | – | 1080 µg/mL | 130 µg/mL | 76.9 µg/mL | – | –
COc1ccc(S(=O)(=O)N(CC(N)=O)c2ccc(N(CC(N)=O)S(=O)(=O)c3ccc(NC(=O)CN4CCCCC4)cc3)c3ccccc23)cc1 | 6640 nM | – | – | – | > 100000 nM | –
COc1ccc(S(=O)(=O)N(CC(N)=O)c2ccc(N(CC(N)=O)S(=O)(=O)c3ccc(N)cc3)c3ccccc23)cc1 | – | 47.5 µg/mL (≈ 79.5 µM) | 55.4 µg/mL (≈ 92.7 µM) | 33.6 µg/mL (≈ 56.2 µM) | – | –
CCN1CCN(CC(=O)Nc2ccc(S(=O)(=O)N(CC(N)=O)c3ccc(N(CC(N)=O)S(=O)(=O)c4ccc(OC)cc4)c4ccccc34)cc2)CC1 | 480 nM | – | – | – | > 100000 nM | –
CC(=O)O.CCN1CCN(CCC(=O)Nc2ccc(S(=O)(=O)N(CC(N)=O)c3ccc(N(CC(N)=O)S(=O)(=O)c4ccc(OC)cc4)c4ccccc34)cc2)CC1 | – | 926 µg/mL | 120 µg/mL | 77.9 µg/mL | – | –
Br.Br.COc1ccc(S(=O)(=O)N(CC(N)=O)c2ccc(N(CC(N)=O)S(=O)(=O)c3ccc(N)cc3)c3ccccc23)cc1 | – | 532 µg/mL | 58.6 µg/mL | 40.7 µg/mL | – | –
CCN1CCN(CCC(=O)Nc2ccc(S(=O)(=O)N(CC(N)=O)c3ccc(N(CC(N)=O)S(=O)(=O)c4ccc(OC)cc4)c4ccccc34)cc2)CC1.O=C(O)/C=C\C(=O)O | – | 1050 µg/mL | 122 µg/mL | 80.5 µg/mL | – | –
CCN1CCN(CCC(=O)Nc2ccc(S(=O)(=O)N(CC(N)=O)c3ccc(N(CC(N)=O)S(=O)(=O)c4ccc(OC)cc4)c4ccccc34)cc2)CC1.O=C(O)C(F)(F)F | – | 1260 µg/mL | 135 µg/mL | 105 µg/mL | – | –
COc1ccc(S(=O)(=O)N(CC(N)=O)c2ccc(N(CC(N)=O)S(=O)(=O)c3ccc(NC(=O)CCCN4CCN(C(C)C)CC4)cc3)c3ccccc23)cc1 | 1480 nM | – | – | – | > 100000 nM | –

Further lines, with some results ahead:

Kd (Keap1/Nrf2) | solubility at 24 h [2] | solubility at 24 h [3] | solubility at 24 h [4] | Structure (SMILES) | CC50 (Peritoneal macrophage [1]) | further results
– | 1570 µg/mL | 151 µg/mL | 47.7 µg/mL | CCN1CCN(CCC(=O)Nc2ccc(S(=O)(=O)N(CC(N)=O)c3ccc(N(CC(N)=O)S(=O)(=O)c4ccc(OC)cc4)c4ccccc34)cc2)CC1.Cl | – | –
1080 nM | – | – | – | COc1ccc(S(=O)(=O)N(CC(N)=O)c2ccc(N(CC(N)=O)S(=O)(=O)c3ccc(NC(=O)CCCN4CCOCC4)cc3)c3ccccc23)cc1 | > 100000 nM | –
> 10000 nM | – | – | – | CCCC(=O)Nc1ccc(S(=O)(=O)N(CC(N)=O)c2ccc(N(CC(N)=O)S(=O)(=O)c3ccc(OC)cc3)c3ccccc23)cc1 | > 100000 nM | –
1760 nM | – | – | – | COc1ccc(S(=O)(=O)N(CC(N)=O)c2ccc(N(CC(N)=O)S(=O)(=O)c3ccc(NC(C)=O)cc3)c3ccccc23)cc1 | > 50000 nM | Activity (Peritoneal macrophage [5]): Active; Activity (Peritoneal macrophage [13]): Active; Activity (Peritoneal macrophage [14]): Active
2810 nM | – | – | – | CCC(=O)Nc1ccc(S(=O)(=O)N(CC(N)=O)c2ccc(N(CC(N)=O)S(=O)(=O)c3ccc(OC)cc3)c3ccccc23)cc1 | > 50000 nM | –
2080 nM | – | – | – | COc1ccc(S(=O)(=O)N(CC(N)=O)c2ccc(N(CC(N)=O)S(=O)(=O)c3ccc(NC(=O)CCN4CCC(C)CC4)cc3)c3ccccc23)cc1 | > 100000 nM | –
– | 1460 µg/mL | 170 µg/mL | 130 µg/mL | Br.CCN1CCN(CCC(=O)Nc2ccc(S(=O)(=O)N(CC(N)=O)c3ccc(N(CC(N)=O)S(=O)(=O)c4ccc(OC)cc4)c4ccccc34)cc2)CC1 | – | –
580 nM | – | – | – | CCN1CCN(CCCC(=O)Nc2ccc(S(=O)(=O)N(CC(N)=O)c3ccc(N(CC(N)=O)S(=O)(=O)c4ccc(OC)cc4)c4ccccc34)cc2)CC1 | > 100000 nM | –
1420 nM | – | – | – | COc1ccc(S(=O)(=O)N(CC(N)=O)c2ccc(N(CC(N)=O)S(=O)(=O)c3ccc(NC(=O)CCN4CCCCC4)cc3)c3ccccc23)cc1 | > 100000 nM | –
2920 nM | – | – | – | COc1ccc(S(=O)(=O)N(CC(N)=O)c2ccc(N(CC(N)=O)S(=O)(=O)c3ccc(NC(=O)CCCN4CCSCC4)cc3)c3ccccc23)cc1 | > 100000 nM | –
> 10000 nM | – | – | – | CCCCC(=O)Nc1ccc(S(=O)(=O)N(CC(N)=O)c2ccc(N(CC(N)=O)S(=O)(=O)c3ccc(OC)cc3)c3ccccc23)cc1 | > 100000 nM | –
